Measurements reported in article PMC2846716 (Journal of medicinal chemistry, 2010).
Where a SMILES comes first, the peptide text is derived from it. [ ]: non-standard residue; d: D form. The star is where a group is joined. NMeW = CN[C@@H](Cc1c[nH]c2ccccc12)C(=O)O; Palmitoyl = CCCCCCCCCCCCCCCC(=O)*

Experiments:
[1] = Stability in 25% rat serum; assay type: in vitro ADME; settings: 25% rat serum at 37° C, 0.1M Tris-HCl pH 7.5, 20 μM peptide, up to 8 hours, HPLC
CF-1 mice [2] = test: 6 Hz corneal stimulation seizure test; assay type: in vivo, mouse; settings: 4 mg/kg i.p.; for Primary Screening at 4 mg/kg (6 Hz, 32 mA), mice protected / tested, 15 min: challenged 15 min after administration; for Primary Screening at 4 mg/kg (6 Hz, 32 mA), mice protected / tested, 30 min: challenged 30 min after administration; for Primary Screening at 4 mg/kg (6 Hz, 32 mA), mice protected / tested, 60 min: challenged 60 min after administration; for Primary Screening at 4 mg/kg (6 Hz, 32 mA), mice protected / tested, 120 min: challenged 120 min after administration; for Primary Screening at 4 mg/kg (6 Hz, 32 mA), mice protected / tested, 240 min: challenged 240 min after administration
[3] = in vitro stability in rat serum; ref [5], [7]; cited from earlier work
CF-1 mice [4] = settings: after i.p. administration; ref [5]; cited from earlier work
hGalR2 = biological target: T1, hGalR2 (Homo sapiens, UniProt O43603); assay type: binding; settings: relative to [N-Me, des-Sar]Gal-B2
T1 sequence (O43603 1-387): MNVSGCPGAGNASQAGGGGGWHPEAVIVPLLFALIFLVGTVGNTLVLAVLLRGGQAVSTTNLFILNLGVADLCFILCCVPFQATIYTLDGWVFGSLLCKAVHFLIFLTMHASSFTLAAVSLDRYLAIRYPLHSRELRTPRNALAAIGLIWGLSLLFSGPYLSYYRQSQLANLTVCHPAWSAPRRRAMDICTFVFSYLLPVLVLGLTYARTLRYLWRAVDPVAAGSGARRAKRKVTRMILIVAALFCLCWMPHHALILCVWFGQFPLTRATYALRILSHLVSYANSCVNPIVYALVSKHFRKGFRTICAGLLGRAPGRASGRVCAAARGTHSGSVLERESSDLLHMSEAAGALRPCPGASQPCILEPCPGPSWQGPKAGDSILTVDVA

[5] = LogD by HPLC capacity factor; assay type: physicochemical; settings: RP-HPLC, Vydac diphenyl column (capacity factor k')
GalR3 = settings: binding; ref [18]; cited from earlier work

Row | Compound | half-life in 25% rat serum [1] [h] | Primary Screening at 4 mg/kg (6 Hz, 32 mA), mice protected / tested, 15 min (CF-1 mice [2]) | Primary Screening at 4 mg/kg (6 Hz, 32 mA), mice protected / tested, 30 min (CF-1 mice [2]) | Primary Screening at 4 mg/kg (6 Hz, 32 mA), mice protected / tested, 60 min (CF-1 mice [2]) | Primary Screening at 4 mg/kg (6 Hz, 32 mA), mice protected / tested, 120 min (CF-1 mice [2]) | Primary Screening at 4 mg/kg (6 Hz, 32 mA), mice protected / tested, 240 min (CF-1 mice [2]) | serum half-life in rat serum [3] [h] | ED50, 6 Hz corneal stimulation mouse model (CF-1 mice [4]) [mg/kg] | reduction of binding toward GalR2 on removal of N-terminal methyl group (hGalR2) [fold] | chromatographic logD [5] | preference towards GalR2 above GalR3 (GalR3) [fold]
1 | CCCCCCCCCCCCCCCC(=O)NCCCC[C@H](NC(=O)[C@H](CCCCN)NC(=O)[C@H](CCCCN)NC(=O)[C@@H]1CCCN1C(=O)CNC(=O)[C@H](CC(C)C)NC(=O)[C@H](CC(C)C)NC(=O)[C@H](Cc1ccc(O)cc1)NC(=O)CNC(=O)[C@H](C)NC(=O)[C@H](CO)NC(=O)[C@H](CC(N)=O)NC(=O)[C@H](CC(C)C)NC(=O)[C@@H](NC(=O)[C@H](Cc1c[nH]c2ccccc12)NC(=O)CNC)[C@@H](C)O)C(=O)N[C@@H](CCCCN)C(N)=O [Gal-B2] | 9.4 | 3/4 | 4/4 | 4/4 | 4/4 | 0/4 | 9.4 | 0.8 | – | – | –
2 | CCCCCCCCCCCCCCCC(=O)NCCCC[C@H](NC(=O)[C@H](CCCCN)NC(=O)[C@H](CCCCN)NC(=O)[C@@H]1CCCN1C(=O)CNC(=O)[C@H](CC(C)C)NC(=O)[C@H](CC(C)C)NC(=O)[C@H](Cc1ccc(O)cc1)NC(=O)CNC(=O)[C@H](C)NC(=O)[C@H](CO)NC(=O)[C@H](CC(N)=O)NC(=O)[C@H](CC(C)C)NC(=O)[C@@H](NC(=O)[C@@H](N)Cc1c[nH]c2ccccc12)[C@@H](C)O)C(=O)N[C@@H](CCCCN)C(N)=O [Gal-B5] (H-WTLNSAGYLLGPKKK(Palmitoyl)K-NH2) | – | 2/4 | 1/4 | 2/4 | 2/4 | 0/3 | – | – | 2 | 1.22 ± 0.02 | –
3 | CCCCCCCCCCCCCCCC(=O)NCCCC[C@H](NC(=O)[C@H](CCCCN)NC(=O)[C@H](CCCCN)NC(=O)[C@@H]1CCCN1C(=O)CNC(=O)[C@H](CC(C)C)NC(=O)[C@H](CC(C)C)NC(=O)[C@H](Cc1ccc(O)cc1)NC(=O)CNC(=O)[C@H](C)NC(=O)[C@H](CO)NC(=O)[C@H](CC(N)=O)NC(=O)[C@H](CC(C)C)NC(=O)[C@@H](NC(=O)[C@H](Cc1c[nH]c2ccccc12)NC(C)=O)[C@@H](C)O)C(=O)N[C@@H](CCCCN)C(N)=O [[N-Ac, des-Sar]Gal-B2] (Ac-WTLNSAGYLLGPKKK(Palmitoyl)K-NH2) | – | – | – | – | – | – | – | – | – | 1.28 ± 0.02 | –
4 | CCCCCCCCCCCCCCCC(=O)NCCCC[C@H](NC(=O)[C@H](CCCCN)NC(=O)[C@H](CCCCN)NC(=O)[C@@H]1CCCN1C(=O)CNC(=O)[C@H](CC(C)C)NC(=O)[C@H](CC(C)C)NC(=O)[C@H](Cc1ccc(O)cc1)NC(=O)CNC(=O)[C@H](C)NC(=O)[C@H](CO)NC(=O)[C@H](CC(N)=O)NC(=O)[C@H](CC(C)C)NC(=O)[C@@H](NC(=O)[C@H](Cc1c[nH]c2ccccc12)NC)[C@@H](C)O)C(=O)N[C@@H](CCCCN)C(N)=O [[N-Me, des-Sar]Gal-B2] (H-[NMeW]TLNSAGYLLGPKKK(Palmitoyl)K-NH2) | – | 0/4 | 3/4 | 3/4 | 1/4 | 0/3 | – | – | – | 1.29 ± 0.01 | –
5 | CCCCCCCCCCCCCCCC(=O)NCCCC[C@H](NC(=O)[C@H](CCCCN)NC(=O)[C@H](CCCCN)NC(=O)[C@@H]1CCCN1C(=O)CNC(=O)[C@H](CC(C)C)NC(=O)[C@H](CC(C)C)NC(=O)[C@H](Cc1ccc(O)cc1)NC(=O)CNC(=O)[C@H](C)NC(=O)[C@H](CO)NC(=O)[C@H](CC(N)=O)NC(=O)[C@H](CC(C)C)NC(=O)[C@@H](NC(=O)[C@H](Cc1c[nH]c2ccccc12)NC(=O)[C@H](C)N)[C@@H](C)O)C(=O)N[C@@H](CCCCN)C(N)=O [[Sar1Ala]Gal-B2] (H-AWTLNSAGYLLGPKKK(Palmitoyl)K-NH2) | – | 4/4 | 4/4 | 4/4 | 1/4 | 0/4 | – | – | – | 1.28 ± 0.01 | –
6 | CCCCCCCCCCCCCCCC(=O)NCCCC[C@H](NC(=O)[C@H](CCCCN)NC(=O)[C@H](CCCCN)NC(=O)[C@@H]1CCCN1C(=O)CNC(=O)[C@H](CC(C)C)NC(=O)[C@H](CC(C)C)NC(=O)[C@H](Cc1ccc(O)cc1)NC(=O)CNC(=O)[C@H](C)NC(=O)[C@H](CO)NC(=O)[C@H](CC(N)=O)NC(=O)[C@H](CC(C)C)NC(=O)[C@@H](NC(=O)[C@H](Cc1c[nH]c2ccccc12)NC(=O)CN)[C@@H](C)O)C(=O)N[C@@H](CCCCN)C(N)=O [[Sar1Gly]Gal-B2] | – | 1/4 | 3/4 | 3/4 | 0/4 | 0/3 | – | – | – | 1.3 ± 0.04 | –
7 | WTLNSAGYLL-CONH2 [Gal(2-11)] | – | – | – | – | – | – | – | – | – | – | 12
